Reference: the NIST ThermoML archive (doi:10.1016/j.jct.2016.03.026)
Numbers after ± are expanded uncertainties.

Test: xn = mol fraction of the nth substance listed
Conditions: Fluid (supercritical or subcritical phases), x1 = 0.97; for speed of sound: 304.19 K, Frequency=5 MHz, Pulse-echo method; for mass density: 304.21 K, Vibrating tube method

O=C=O [carbon dioxide] + CO
Conditions	mass density [kg/m3]	speed of sound [m/s]
7850 kPa	713.81 ± 0.83	–
7875 kPa	715.24 ± 0.83	–
7900 kPa	716.69 ± 0.83	–
7925 kPa	717.99 ± 0.83	–
7950 kPa	719.19 ± 0.83	–
7975 kPa	720.37 ± 0.83	–
8000 kPa	721.57 ± 0.83	–
8025 kPa	722.66 ± 0.83	–
8050 kPa	723.78 ± 0.83	–
8075 kPa	724.91 ± 0.83	–
8100 kPa	725.92 ± 0.83	–
8125 kPa	726.93 ± 0.83	–
8150 kPa	728.01 ± 0.83	–
8175 kPa	729.1 ± 0.83	–
8200 kPa	730.14 ± 0.83	–
8225 kPa	731.15 ± 0.83	–
8250 kPa	732.12 ± 0.83	–
8275 kPa	733.11 ± 0.83	–
8300 kPa	734.02 ± 0.82	–
8325 kPa	735.01 ± 0.82	–
8350 kPa	735.91 ± 0.82	–
8375 kPa	736.81 ± 0.82	–
8400 kPa	737.68 ± 0.82	–
8425 kPa	738.51 ± 0.82	–
8450 kPa	739.43 ± 0.82	–
8475 kPa	740.29 ± 0.82	–
8500 kPa	741.14 ± 0.82	–
8525 kPa	741.99 ± 0.82	–
8550 kPa	742.83 ± 0.82	–
8575 kPa	743.65 ± 0.82	–
8600 kPa	744.47 ± 0.82	–
8625 kPa	745.32 ± 0.82	–
8650 kPa	746.1 ± 0.82	–
8675 kPa	746.89 ± 0.82	–
8700 kPa	747.67 ± 0.82	–
8725 kPa	748.5 ± 0.82	–
8750 kPa	749.21 ± 0.82	–
8775 kPa	749.97 ± 0.82	–
8800 kPa	750.73 ± 0.82	–
8825 kPa	751.52 ± 0.82	–
8850 kPa	752.22 ± 0.82	–
8875 kPa	752.97 ± 0.82	–
8900 kPa	753.68 ± 0.82	–
8925 kPa	754.39 ± 0.82	–
8950 kPa	755.11 ± 0.82	–
8975 kPa	755.82 ± 0.82	–
9000 kPa	756.48 ± 0.82	–
9025 kPa	757.25 ± 0.82	–
9050 kPa	757.93 ± 0.82	–
9075 kPa	758.64 ± 0.82	–
9100 kPa	759.25 ± 0.82	–
9125 kPa	759.92 ± 0.82	–
9150 kPa	760.55 ± 0.82	–
9175 kPa	761.24 ± 0.82	–
9200 kPa	761.88 ± 0.82	–
9225 kPa	762.52 ± 0.82	–
9250 kPa	763.15 ± 0.82	–
9275 kPa	763.76 ± 0.82	–
9300 kPa	764.36 ± 0.82	–
9325 kPa	764.98 ± 0.82	–
9350 kPa	765.65 ± 0.82	–
9375 kPa	766.27 ± 0.82	–
9400 kPa	766.88 ± 0.82	–
9425 kPa	767.44 ± 0.82	–
9450 kPa	768.06 ± 0.82	–
9475 kPa	768.6 ± 0.82	–
9500 kPa	769.12 ± 0.82	–
9525 kPa	769.73 ± 0.82	–
9550 kPa	770.22 ± 0.82	–
9575 kPa	770.76 ± 0.82	–
9600 kPa	771.35 ± 0.82	–
9625 kPa	771.96 ± 0.82	–
9650 kPa	772.5 ± 0.82	–
9675 kPa	773.03 ± 0.82	–
9700 kPa	773.62 ± 0.82	–
9725 kPa	774.15 ± 0.82	–
9750 kPa	774.65 ± 0.82	–
9775 kPa	775.2 ± 0.82	–
9800 kPa	775.72 ± 0.82	–
9825 kPa	776.25 ± 0.82	–
9850 kPa	776.81 ± 0.82	–
9875 kPa	777.3 ± 0.82	–
9900 kPa	777.81 ± 0.82	–
9925 kPa	778.36 ± 0.82	–
9950 kPa	778.83 ± 0.82	–
9975 kPa	779.32 ± 0.82	–
10000 kPa	779.86 ± 0.82	–
10025 kPa	780.3 ± 0.82	–
10050 kPa	780.81 ± 0.82	–
10075 kPa	781.33 ± 0.82	–
10100 kPa	781.81 ± 0.82	–
10125 kPa	782.29 ± 0.82	–
10150 kPa	782.79 ± 0.82	–
10175 kPa	783.3 ± 0.82	–
10200 kPa	783.77 ± 0.82	–
10225 kPa	784.17 ± 0.82	–
10250 kPa	784.67 ± 0.82	–
10275 kPa	785.18 ± 0.82	–
10300 kPa	785.65 ± 0.82	–
10325 kPa	786.13 ± 0.82	–
10350 kPa	786.55 ± 0.82	–
10375 kPa	787.08 ± 0.82	–
10400 kPa	787.51 ± 0.82	–
10425 kPa	787.92 ± 0.82	–
10450 kPa	788.38 ± 0.82	–
10475 kPa	788.87 ± 0.82	–
10500 kPa	789.3 ± 0.82	–
10525 kPa	789.73 ± 0.82	–
10550 kPa	790.18 ± 0.82	–
10575 kPa	790.6 ± 0.82	–
10600 kPa	791.05 ± 0.82	–
65100 kPa	–	894.9 ± 1.2
70230 kPa	–	919.7 ± 1.2
75540 kPa	–	944.1 ± 1.2
79980 kPa	–	963.6 ± 1.3
90070 kPa	–	1005.1 ± 1.3
100040 kPa	–	1043.2 ± 1.3
109900 kPa	–	1078.3 ± 1.4
119960 kPa	–	1112.5 ± 1.4
140090 kPa	–	1173.8 ± 1.5
159770 kPa	–	1228.8 ± 1.6
180450 kPa	–	1282 ± 1.6
